# Laboratory results published in PubChem BioAssay (NCI).
#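 Exposure lasted 48 hours, with cells grown in 96-well plates and compounds tested at five concentrations. GI50 is the concentration that inhibits growth by half. TGI: total growth inhibition.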
# Experiments:
# Test in all cases: growth of human tumour cells (NCI), 48 h
# [1] = tested on: HL-60(TB) leukemia
# [2] = tested on: MALME-3M melanoma
# [3] = tested on: ACHN renal
# [4] = tested on: M14 melanoma
# [5] = tested on: UACC-257 melanoma
# [6] = tested on: T-47D breast
# [7] = tested on: MCF7 breast
# [8] = tested on: M19-MEL melanoma
# [9] = tested on: DMS 273 small cell lung
# [10] = tested on: DLD-1 colon
# [11] = tested on: DMS 114 small cell lung
SMILES,TGI [1] [µM],GI50 [2] [µM],TGI [2] [µM],TGI [3] [µM],TGI [4] [µM],TGI [5] [µM],GI50 [6] [µM],TGI [6] [µM],GI50 [7] [µM],TGI [7] [µM],GI50 [8] [µM],TGI [8] [µM],GI50 [9] [µM],TGI [9] [µM],GI50 [10] [µM],TGI [10] [µM],GI50 [11] [µM],TGI [11] [µM],GI50 [4] [µM],GI50 [5] [µM]
O=C(N/N=C/c1cc(Cl)cc(Cl)c1[O-])c1ccccc1O.O=C(N/N=C/c1cc(Cl)cc(Cl)c1[O-])c1ccccc1O.[Ni+2],0.472,0.759,2.36,2.21,1.84,2.67,–,–,–,–,–,–,–,–,–,–,–,–,–,–
O=C(NC1CCN(Cc2ccccc2)CC1)c1cc2nc(-c3ccc(Cl)s3)cc(C(F)(F)F)n2n1,–,–,–,–,–,–,41.3,> 100,8.98,> 100,–,–,–,–,–,–,–,–,–,–
N#C[S-].[Nd+3].c1ccc(-c2ccccn2)nc1.c1ccc(-c2ccccn2)nc1.c1ccc(-c2ccccn2)nc1,–,18.5,68.4,–,5.96,61.2,–,–,–,–,9.78,54,3.23,19.5,3.45,> 100,15.7,67.1,2.26,13.5
